Experimental findings from US4221794A, “Method of imparting immunomodulating and antiviral activity” (Newport Pharmaceuticals International, Inc., priority 1979, dated 1980) are described below.

Several values for one entry are separate records, joined by “and”; a condition that tells them apart may be missing. Equal values may be shown once. Where a name gives a salt, the structure may show the parent alone. Read-outs that look alike come from different tables or passages of the source.

The subject of assay [1] is influenza virus. As to the kind of experiment: microbe, parasite or virus in culture. In kind it is cell-based, influenza virus Type A/USSR 90 (HeLa cell cultures). The settings on record: for inhibition at 10 µg/mL / inhibition at 100 µg/mL: unidentified influenza virus; for inhibition at 10 µg/mL: read-out: % Inhibition of Hemadsorption Foci, Test Compound Conc. <10 μg/ml; for inhibition at 100 µg/mL: read-out: % Inhibition of Hemadsorption Foci, Test Compound Conc. >100 μg/ml.

Assay [2] relates to Influenza A Swine 1976 (Hlsw -N1). It is filed as cell-based.
The next assay concerns guinea pig macrophages. As to the kind of experiment: Lymphokine (MMF) induced guinea pig macrophage proliferation. In kind it is cell-based. The settings on record: plus = immunostimulating, minus = immunoinhibiting, 0 = neither. As for the experimental part:
3. The macrophage represents a subpopulation of white blood cells which is an important component of the immune system in control of both cellular and humoral immunity. The assay system described below evaluates the substances studied as potentiators of macrophage function.
Phytohemagglutinin (PHA) (HA-17) was purchased from Burroughs Wellcome. A preparation containing Macrophage Mitogen Factor (MMF) and Macrophage Activating Factor (MAF) was prepared from antigen-stimulated immune lymph node lymphocytes (guinea pig) as previously described by Hadden et al, Nature 257, 483-485 (1975). […] The active fraction was employed in both the proliferation and activation assays.
Ficoll-hypaque purified human peripheral blood lymphocytes were prepared and PHA-induced lymphocyte proliferation was assayed by the incorporation of tritiated thymidine as described in Hadden et al., Cell. Immunol. 20, 98-103 (1975). Each compound was analyzed in the presence of suboptimal, optimal and supraoptimal concentrations of PHA (0.001, 0.01, 0.1 units/ml respectively). Paraffin oil-induced guinea pig peritoneal macrophages were prepared and incubated as monolayer culture (>98% pure macrophages). Lymphokine (MMF)-induced proliferation was assayed by the incorporation of tritiated thymidine at 3 and 5 days of culture as described, Hadden et al, Nature 257, 483-485 (1975). Lymphokine (MAF)-induced macrophage activation to kill Listeria monocytogenes following 5 days of culture in the presence or absence of MAF was performed during a 6 hour period as described in Hadden and England, Immunopharmacology, pages 87-100 (Plenum Press, 1977). Phagocytosis was quantitated during a 20-minute exposure to Listeria monocytogenes by counting the number of macrophages containing bacteria and the number of bacteria per phagocytic cell on gram stained monolayers in Labtek chambers. Intracellular killing of bacteria was evaluated by counting the number of cells containing bacteria and the number of bacteria/cell 6 hours after the initial 20 minute exposure. Parallel experiments in which macrophages were lysed and intracellular bacteria were cultured confirm the validity of bacterial activity determined by this manner in this system. The drugs were employed in each of the three systems over serial log concentration range in triplicate in the presence and absence of mitogen or lymphokine. Each type of experiment was performed at least three times. Previous experiments indicate a parallelism of response to pharmacologic modulation in the proliferation and achivation assays.
(§1) Table 4 above presents the results of an evaluation of a number of these subject compounds as potentiators of the immune response. Three different test systems were used. The first involves a measure of the ability of the test compound to enhance the ability of mouse lymphocytes to proliferate in response to a plant mitogen (Con A). The second involves measuring the ability of the test compounds to enhance human lymphocyte proliferation in response to a second plant mitogen (PHA). The third system measures the ability of these test substances to enhance macrophage proliferation in response to a natural lymphokine (MMF, Macrophage Mitogenic Factor).

In another assay the test system is mouse lymphocytes. As to the kind of experiment: Mitogen (Con A) induced mouse lymphocyte (spleen cell) proliferation. The settings on record: for Maximum Percent Change, Mitogen Induced (Con A) Mouse Lymph. Prolif.: plus = immunostimulating, minus = immunoinhibiting, 0 = neither. In kind it is cell-based.
From the text: (§2) The following three assay procedures are used to evaluate the ability of the test substances to modulate the activity of several classes of cells in the immune system. In these systems it is possible to identify both immunopotentiating activity (evidence by an enhancement of the parameter examined) as well as immunosuppressant activity (evidenced by an inhibition of the parameter examined).
1. Mitogen-Induced Mouse Spleen Cell Assay
Mouse spleen cells contain a population of both B and T lymphocytes which can be stimulated by a number of foreign substances (e.g., plant mitogens such as Con A) to proliferate. This enhanced proliferation is an indication of enhanced cell mediated immunity. The method below describes the system used to evaluate test substances as immunopotentiators.
Concanavalin A (Calbiochem, La Jolla, California), Lot #210073, lyophilized in NaCl, was prepared first as a 1% solution and diluted as a 2×concentration for each dilution (0.5, 1.0, 2.5 μg/ml).
Six to eight week old male Balb/c and C3 H inbred mice were obtained from the following sources: Flow Research Animals, Inc., Dublin, Virginia; Charles River Breeding Laboratories, Wilmington, Massachusetts; Laboratory Supply Company, Indianapolis, Indiana; and Lionel Strong Foundation, San Diego, California.
Three to five mice were sacrificed by cervical dislocation and the spleens aseptically removed. Pooled spleens were minced and teased with sterile forceps; then strained through a double layer of nylon mesh. The cell suspension was washed once with 15 ml of RPMI 1640 supplemented with 5% fetal calf serum and antibiotics. Cells were cultured at a concentration of 10^6 cells/0.1 ml/well in micro-plates. Cultures were incubated in the presence or absence of mitogen in a humidified atmosphere containing 5% CO2 for 48 hours. The test compound was added to cultures at various concentrations concommitant with mitogen.
Proliferation was assayed by the degree of incorporation of 1.0 μCi of [^3 H] thymidine over an 18 hour incubation period. Cultures were harvested by a MASH unit (Otto Hiller Co., Madison, Wisconsin) and thymidine incorporation was assayed by liquid scintillation spectrometry. Cultures were performed in triplicate and data are expressed as means plus or minus the standard error of the experimental means. Drug stimulation indices over control values were also calculated and portrayed graphically.
as §1

Assay [3] has as its system influenza virus. As to the kind of experiment: Anti-influenza activity (overall). The conditions noted are these: for anti-influenza activity (in words): compound by itself; for inhibit the replication of different strains of influenza virus (number of strains): concentrations ranging from 1-150 μg/ml. It is filed as cell-based, several strains of A and B sub-types.
The subject of assay [4] is human peripheral blood lymphocytes. As to the kind of experiment: Mitogen (PHA) induced human lymphocyte proliferation. It is filed as cell-based. The settings on record: plus = immunostimulating, minus = immunoinhibiting, 0 = neither.
The test system of assay [5] is (Russian) influenza virus. As to the kind of experiment: Inhibition of influenza virus replication, Russian. In kind it is cell-based.
The next assay relates to immune response. As to the kind of experiment: Immunomodulating activity (overall). It is filed as cell-based.
From the text: as §2, §1

A further assay has as its system L-1210 leukemic cells. As to the kind of experiment: Anti-leukemic activity, inhibition of L-1210 growth. In kind it is cell-based, mouse. The settings on record: 96 hours. Here is the method: Anti-Leukemic Activity (Inhibition of L-1210 Growth)
Leukemic cells isolated from mice bearing the L-1210 tumor are cultured in vitro and their growth can be measured by counting the number of cells in the culture over a period of time. The incorporation of a test substance into the media will prevent the growth of the leukemic cells, an indication of an effective anti-leukemic agent.
I50 (concentration of drug inhibiting growth of L-1210) by % for the tested compounds was as follows:
To Measure Inhibition of Leukemic Cell (L-1210) Growth
Check to see that there is adequate cell growth in the stock cultures. Use cells 48-72 hours after transfers are done.
Weigh out the drugs at 50 times the desired final concentration and made serial dilutions.
Make up the final medium using 500 mls McCoy's 5A medium, 15% fetal calf serum, 5 mls penicillin-streptomycin solution, and 5 mls antibiotic-antimycotic solution and let it stand at room temperature.
Using sterile technique, add 0.1 ml of the drug dilutions to each tube.
Add an appropriate quantity of cells to the prepared medium. After mixing, remove a 0.5 ml sample, place it in a vial containing […] of saline, and count it on the Coulter Counter. Multiply the count by 40 to compensate for the 40 fold dilution (0.5 ml into […] and record the inoculum.
Add 5 mls of cell suspension to each tube. Swirl the bottle every 4 tubes to insure a more uniform distribution of cells.
Tighten the caps and place in the CO2 incubator at 36°-38° for 96 hours.
After 96 hours remove the tubes from the incubator and count the contents of each on the Coulter Counter. Multiply all counts by 40 and average the four counts for each drug dilution. If the count is less than the inoculum, record 100% inhibition. If the count is greater than the average of the eight control counts, record 0% inhibition. For all other counts use the following formula: [formula] 100%-% servival=inhibition of growth due to treatment.

The mark [6] stands for this setting: 1.0-10 (unit not printed), listed as 15417.
[7] abbreviates: 1.0-10 (unit not printed), listed as 15418.

Usually % Inhibition stands for how much of the control response was suppressed. Low values mean little suppression, high ones strong suppression. As for `CCCCCCC(CO)n1cnc2c(=O)[nH]cnc21` (stereo not drawn) [NPT 15417], the inhibition at 10 µg/mL with influenza virus [1] turned out to be 18%. For the same compound, the inhibition at 100 µg/mL in the assay on influenza virus [1] was found to be 60%. The “% Inhibition” value in [2] (listed as 15417) was 50-70% and > 70%. Moreover, the “Maximum Percent Change, Lymphokine Induced (MMF) Guinea Pig Mac. Prolif.” value in the assay on guinea pig macrophages (setting [6]) is reported as 13%; in the assay on guinea pig macrophages (10-100 (unit not given)) it was -50%. Further, the “% Stimulation, Mitogen Induced Murine Lymphocyte Proliferation” value (“% Stimulation” below) in the assay with mouse lymphocytes (01-1.0 μg/ml, listed as 15417) is given as 0%; in the assay with mouse lymphocytes (1.0-10 μg/ml, listed as 15417), 0%; in the assay with mouse lymphocytes (10-100 μg/ml, listed as 15417), 0%; in the assay on mouse lymphocytes (>100 μg/ml), 0%. Besides, the “Maximum Percent Change, Mitogen Induced (Con A) Mouse Lymph. Prolif.” value in the assay on mouse lymphocytes (setting [6]) is reported as 0%; in the assay with mouse lymphocytes (10-100 (unit not printed), listed as 15417), 0%; with mouse lymphocytes (.01-1.0 (unit not printed), listed as 15417), 0%. Further, the “anti-influenza activity (in words)” value in the assay with influenza virus [3] is recorded as “significant anti-influenza activity”. The “inhibit the replication of different strains of influenza virus (number of strains)” value in the assay with influenza virus [3] is given as “at least 4 different strains”. Also, the “Maximum Percent Change, Mitogen Induced (PHA) Human Lymph. Prolif.” value in assay [4] (1.0-10 (unit not given)) is listed as 0%; in assay [4] (10-100 (unit not given)) it was -50%; in assay [4] (.01-1.0 (unit not given)) it was 0%.

Consider `CCCCCC[C@H]([C@H](C)O)n1cnc2c(N)ncnc21` (relative stereo) [NPT 15426, ERYTHRO-9-(2-HYDROXY-3-NONYL)-ADENINE. HCl], for which the inhibition at 10 µg/mL in the assay on influenza virus [1] worked out at 50%. Further, the inhibition at 100 µg/mL in the assay on influenza virus [1] was 100%. In addition, the “% Stimulation” value with mouse lymphocytes (01-1.0 μg/ml), in the assay on mouse lymphocytes (1.0-10 μg/ml) and in the assay on mouse lymphocytes (10-100 μg/ml) was 0% throughout. Further, the results for the “Maximum Percent Change, Mitogen Induced (Con A) Mouse Lymph. Prolif.” value in the assay on mouse lymphocytes (1.0-10 (unit not given)), in the assay with mouse lymphocytes (10-100 (unit not given)) and in the assay on mouse lymphocytes (.01-1.0 (unit not given)) were -85%, -91% and -50%, respectively. The “anti-influenza activity (in words)” value in the assay with influenza virus [3] is “significant anti-influenza activity”. Also, the “% Inhibition” value in assay [5] (0.1-1.0 μg/ml) was 20-30%; in assay [5] (1.0-10 μg/ml), 30-50%; in [5] (10-100 μg/ml) it was 50-70%; in assay [5] (>100 μg/ml), 50-70%. For the same compound, the “Maximum Percent Change, Mitogen Induced (PHA) Human Lymph. Prolif.” value in assay [4] (1.0-10 (unit not given)) is -41%; in assay [4] (.01-1.0 (unit not given)) it was 6%.

Turning to `CCCCCCC(CO)n1cnc2c(=O)[nH]cnc21` (stereo not drawn) [NPT 15418], the “% Inhibition of Hemadsorption Foci” value with influenza virus [1] (Test Compound Conc. <10 μg/ml) is 16%; with influenza virus [1] (Test Compound Conc. >100 μg/ml), 52%. Further, the “% Inhibition” value in [2] (listed as 15418) is recorded as above 70%. The “Maximum Percent Change, Lymphokine Induced (MMF) Guinea Pig Mac. Prolif.” value with guinea pig macrophages (setting [7]) turned out to be 80%; in the assay on guinea pig macrophages (.01-1.0 (unit not given)), 12%. The “% Stimulation” value in the assay on mouse lymphocytes (01-1.0 μg/ml, listed as 15418) is given as 20-30%; in the assay on mouse lymphocytes (1.0-10 μg/ml, listed as 15418) it was above 50%; with mouse lymphocytes (10-100 μg/ml, listed as 15418) it was 20-30%. Besides, the “Maximum Percent Change, Mitogen Induced (Con A) Mouse Lymph. Prolif.” value came to 73% in the assay with mouse lymphocytes (setting [7]); 26% with mouse lymphocytes (10-100 (unit not printed), listed as 15418); 41% with mouse lymphocytes (.01-1.0 (unit not printed), listed as 15418). For the same compound, in the assay with influenza virus [3], the “potentiation of anti-influenza activity by DIP.PAcBA salt” value is “does potentiate the anti-influenza activity and Yes”. For the same compound, the “inhibit the replication of different strains of influenza virus (number of strains)” value in the assay with influenza virus [3] was “at least 4 different strains”. The “potentiation of the immune response (in words)” value in the assay on immune response is “potentiation of the immune response has been observed”. Moreover, the “Potentiation of immunopotentiation by DIP.PAcBA salt” value in the assay on immune response (salt compared with parent compound) is “Yes”. In addition, the “I50 (concentration of drug inhibiting growth of L-1210)” value with L-1210 leukemic cells worked out at 70 micrograms/ml.
